Assay results published in patent publication US6339064B1, “Benzylglycosylamides as inhibitors of smooth muscle cell proliferation” (American Home Products Corporation, priority 1998, dated 2002).

test system: Porcine Smooth Muscle Cell; test: Effects of compounds on cell proliferation using 3H thymidine incorporation (porcine smooth muscle cell antiproliferation); type: cell-based; settings: at 50 μM, control (100%) = maximally stimulated cells
Experimental: Effects of Compounds on Cell Proliferation Using ^3H Thymidine Incorporation
Human and porcine smooth muscle cells were tested in early passage (generally passage 3-7) at sub-confluent conditions. Cultures were grown in 16 mm (24 well) multi-well culture dishes in medium 199 supplemented with 10% fetal bovine serum and 2% antibiotic/antimycotic. At sub-confluence, the cells were placed in a defined serum free medium (AIM-V; Gibco) for 24-48 h prior to initiating the experimental protocol.
Compounds were added to each well at 50 fold dilution (20 μL/well) and the plates were incubated for 24-36 h at 37° C. in 5% CO2. Compounds were initially dissolved in 50% ethanol and serially diluted into media. Compounds were routinely evaluated at concentrations from 1 to 100 μM. As a control, grade II porcine intestinal mucosal herapin (sodium salt) was routinely evaluated in all cell preparations at concentrations from 0.1 to 100 μg/mL.
At the completion of the test procedure, plates were placed on ice, washed three times with ice cold phosphate buffered saline (PBS) and incubated in ice cold 10% trichloroacetic acid (TCA) got 30 min to remove acid soluble proteins. Solution was transferred to scintillation vials containing 0.4 N HCl (500 μL/vial to neutralize NaOH) and each well was rinsed two times with water (500 μL) for a total volume of 2 mL/vial.
Data was obtained, in triplicate, for both control and experimental samples. Control (100%) data was obtained from maximally stimulated cells, as the result of growth factor or serum stimulation. Experimental data was obtained from cells maximally stimulated with growth factor or serum and treated with compound. Data are expressed as an IC50 in Table I below.

SMILES	Porcine Smooth Muscle Cell Antiproliferation, % at 50 μM
O=C(NC1OC(CO)C(OC2OC3COC(c4ccccc4)OC3C(O)C2O)C(O)C1O)c1ccc(Cl)c([N+](=O)[O-])c1 [Example 5, (R)-4-chloro-3-nitro-N-[4-O-[4,6-O-(phenylmethylene)-α-D-glucopyranosyl]-β-D-glucopyranosyl]-benzamide]	37% at 50
CCCCOc1c(Cl)cc(C(=O)N[C@@H]2O[C@H](CO)[C@@H](O[C@H]3O[C@@H]4COC(c5ccccc5)O[C@H]4[C@H](O)[C@H]3O)[C@H](O)[C@H]2O)cc1OC.O (stereo partly drawn) [Example 26, 4-butoxy-3-chloro-N-[(4′,6′-O-benzylidene)-β-D-maltosyl]-5-methoxy-benzamide Hydrate]	32% at 50
CCCCOc1c(Cl)cc(C(=O)NC2OC(COC(=O)c3ccccc3)C(OC3OC4COC(c5ccccc5)OC4C(O)C3O)C(O)C2O)cc1OC [Example 27, N[(6-O-benzoyloxy-4′,6′-O-benzylidene)-β-D-maltosyl]-4-butoxy-3-chloro-5-methoxy-benzamide]	45% at 50
CC(=O)Nc1cc(C(=O)N[C@@H]2O[C@H](COC(C)=O)[C@@H](O[C@H]3O[C@H](COC(C)=O)[C@@H](OC(C)=O)[C@H](OC(C)=O)[C@H]3OC(C)=O)[C@H](OC(C)=O)[C@H]2OC(C)=O)ccc1OCCCC#N [Example 33]	0% at 50
CCCCOc1ccc(C(=O)NC2OC(CO)C(OC3OC4COC(c5ccccc5)OC4C(O)C3O)C(O)C2O)cc1Cl.O [Example 19, 4-Butoxy-3-chloro-N-[(4′,6′-O-benzylidene)-β-D-maltosyl]-benzamide hydrate]	35% at 50
CC(=O)OC[C@H]1O[C@@H](NC(=O)c2ccc(OCCCC#N)c(N)c2)[C@H](OC(C)=O)[C@@H](OC(C)=O)[C@@H]1O[C@H]1O[C@H](COC(C)=O)[C@@H](OC(C)=O)[C@H](OC(C)=O)[C@H]1OC(C)=O [Example 32]	10% at 50
COc1cc(C(=O)NC2OC(CO)C(OC3OC4COC(c5ccccc5)OC4C(O)C3O)C(O)C2O)ccc1Cl [Example 23, N-(4′,6′-O-Benzylidene-β-D-maltosyl)-4-chloro-3-methoxy-benzamide]	2% at 50
CC(=O)OC1C(NC(=O)c2ccc(OCCCC#N)c([N+](=O)[O-])c2)OC(COC(=O)c2ccccc2)C(OC2OC3COC(c4ccccc4)OC3C(OC(C)=O)C2OC(C)=O)C1OC(C)=O [Example 31, N-(2,2′,3,3′-tetra-O-Acetyl-6-O-benzoyl-4′,6′-O-benzylidene-β-D-maltosyl)-4-(4-nitrilo-butoxy)-3-nitro-benzamide]	15% at 50
CC(=O)OC[C@H]1O[C@@H](NC(=O)Cc2ccc(O)c([N+](=O)[O-])c2)[C@H](OC(C)=O)[C@@H](OC(C)=O)[C@@H]1O[C@H]1O[C@H](COC(C)=O)[C@@H](OC(C)=O)[C@H](OC(C)=O)[C@H]1OC(C)=O [Example 48, N-(Hepta-O-acetyl-β-D-maltosyl)-2-(4-hydroxy-3-nitro-phenyl)-acetamide]	37% at 50

same assay, conditions: serum/growth factor stimulated cells, 24-36 h incubation

SMILES	IC50
CC(=O)Nc1cc(C(=O)NC2OC(COC(=O)c3ccccc3)C(OC3OC4COC(c5ccccc5)OC4C(O)C3OC(C)=O)C(O)C2OC(C)=O)ccc1Cl [Example 9, (R)-N-[2-O-Acetyl-4-O-[2-O-acetyl-4,6-O-(phenylmethylene)-α-D-glucopyranosyl]-6-O-benzoyl-β-D-glucopyranosyl]-3-(acetylamino)-4-chlorobenzamide]	1.25 µM
COc1ccc(C(=O)N[C@@H]2O[C@H](COC(C)=O)[C@@H](O[C@H]3O[C@H](COC(C)=O)[C@@H](OC(C)=O)[C@H](OC(C)=O)[C@H]3OC(C)=O)[C@H](OC(C)=O)[C@H]2OC(C)=O)c(OC)n1 [Example 36, N-(Hepta-O-acetyl-β-D-maltosyl)-2,6-dimethoxy-pyridine-3-carboxamide]	13.6 µM
CC(=O)O[C@@H]1[C@@H](OC(C)=O)[C@H](NC(=O)c2ccc(Cl)c([N+](=O)[O-])c2)O[C@H](COC(=O)c2ccccc2)[C@H]1O[C@H]1O[C@@H]2COC(c3ccccc3)O[C@H]2[C@H](OC(C)=O)[C@H]1OC(C)=O (stereo partly drawn) [Example 8, 4-Chloro-N-[(2,2′,3,3′-tetra-O-acetyl-6-benzoyl-4′,6′-O benzylidene)-β-D-maltosyl]-3-nitro-benzamide]	0.26 µM
CC(=O)OC[C@H]1O[C@H](NC(=O)c2ccc(OCCCC#N)c(Cl)c2)[C@H](OC(C)=O)[C@@H](OC(C)=O)[C@@H]1O[C@H]1O[C@H](COC(C)=O)[C@@H](OC(C)=O)[C@H](OC(C)=O)[C@H]1OC(C)=O [Example 14]	51.3 µM
CC(=O)Nc1cc(C(=O)NC2OC(COC(=O)c3ccccc3)C(OC3OC4COC(c5ccccc5)OC4C(O)C3O)C(O)C2O)ccc1OCCCC#N [Example 34, 3-Acetylamino-N-(6-O-benzoyl-4′,6′-O-benzylidene-β-D-maltosyl)-4-(4-nitrilo-butoxy)-benzamide]	0.98 µM
N#CCCCOc1ccc(C(=O)NC2OC(COC(=O)c3ccccc3)C(OC3OC4COC(c5ccccc5)OC4C(O)C3O)C(O)C2O)cc1[N+](=O)[O-] [Example 30, N-(6-O-Benzoyl-4′,6′-O-benzylidene-β-D-maltosyl)-4-(4-nitrilo-butoxy)-3-nitro-benzamide]	1.4 µM
CC(=O)Nc1cc(C(=O)NC2OC(COC(=O)c3ccccc3)C(OC3OC4COC(c5ccccc5)OC4C(O)C3O)C(O)C2O)ccc1Cl [Example 6, (R)-3-(Acetylamino)-N-[6-O-benzoyl-4-O-[4,6-O-(phenylmethylene)-α-D-glucopyranosyl]-β-D-glucopyranosyl]-4-chloro-benzamide]	0.45 µM
O=C(NC1OC(COC(=O)c2ccccc2)C(OC2OC3COC(c4ccccc4)OC3C(O)C2O)C(O)C1O)c1cccc(C(F)(F)F)c1 [Example 40, N-[{6-O-Benzoyl-4′,6′-O-benzylidene}-β-D-maltosyl]-3-(trifluoromethyl)-benzamide]	7.15 µM
N#CCCCOc1ccc(C(=O)NC2OC(COC(=O)c3ccccc3)C(OC3OC4COC(c5ccccc5)OC4C(O)C3O)C(O)C2O)cc1Cl [Example 16, N-(6-O-Benzoyl-4′,6′-O-benzylidene-β-D-maltosyl)-3-chloro-4-(4-nitrilo-butoxy)-phenyl amide]	0.27 µM
CC(=O)OC[C@H]1O[C@@H](NC(=O)c2ccc(Cl)cc2)[C@H](OC(C)=O)[C@@H](OC(C)=O)[C@@H]1O[C@H]1O[C@H](COC(C)=O)[C@@H](OC(C)=O)[C@H](OC(C)=O)[C@H]1OC(C)=O [Example 10, N-(Hepta-O-acetyl-β-D-maltosyl)-4-chloro-benzamide]	36.6 µM
CC(=O)OC[C@H]1O[C@@H](NC(=O)c2ccc(Cl)nc2)[C@H](OC(C)=O)[C@@H](OC(C)=O)[C@@H]1O[C@H]1O[C@H](COC(C)=O)[C@@H](OC(C)=O)[C@H](OC(C)=O)[C@H]1OC(C)=O [Example 35, N-(Hepta-O-acetyl-β-D-maltosyl)-6-chloropyridine-3-carboxamide]	66.6 µM
CCCCOc1ccc(C(=O)NC2OC(COC(=O)c3ccccc3)C(OC3OC4COC(c5ccccc5)OC4C(O)C3O)C(O)C2O)cc1Cl [Example 20, 4-Butoxy-3-chloro-N-[(6-O-benzoyl-4′,6′-O-benzylidene)-β-D-maltosyl]-benzamide]	3.14 µM
COc1ccc(CC(=O)NC2OC(COC(=O)c3ccccc3)C(OC3OC4COC(c5ccccc5)OC4C(O)C3O)C(O)C2O)cc1OC [Example 47, N-(6-O-Benzoyl-4′,6′-O-benzylidene-β-D-maltosyl)-2-(3,4-dimethoxy-phenyl)-acetamide]	8 µM
CC(=O)OC[C@H]1O[C@@H](NC(=O)c2ccc(Cl)c([N+](=O)[O-])c2)[C@H](OC(C)=O)[C@@H](OC(C)=O)[C@@H]1O[C@H]1O[C@H](COC(C)=O)[C@@H](OC(C)=O)[C@H](OC(C)=O)[C@H]1OC(C)=O [Example 1, N-(Hepta-O-acetyl-1-deoxy-β-D-maltosyl)-4-chloro-3-nitro-benzamide]	21.2 µM
CC(=O)OC[C@H]1O[C@@H](NC(=O)c2ccc(OCCCC#N)c(Cl)c2)[C@H](OC(C)=O)[C@@H](OC(C)=O)[C@@H]1O[C@H]1O[C@H](COC(C)=O)[C@@H](OC(C)=O)[C@H](OC(C)=O)[C@H]1OC(C)=O [Example 13]	32.8 µM
CC(=O)Nc1cc(C(=O)NC2OC(CO)C(OC3OC4COC(c5ccccc5)OC4C(O)C3O)C(O)C2O)ccc1Cl [Example 4, (R)-3-(Acetylamino)-4-chloro-N-[4-O-[4,6-O-(phenylmethylene)-α-D-glucopyranosyl]-β-D-glucopyranosyl]-benzamide]	3.2 µM
CC(=O)OC[C@H]1O[C@@H](NC(=O)Cc2ccc(Cl)c([N+](=O)[O-])c2)[C@H](OC(C)=O)[C@@H](OC(C)=O)[C@@H]1O[C@H]1O[C@H](COC(C)=O)[C@@H](OC(C)=O)[C@H](OC(C)=O)[C@H]1OC(C)=O [Example 50, N-(2,2′,3,3′,4′,6,6′-hepta-O-acetyl-β-D-maltosyl)-2-(4-chloro-3-nitro-phenyl)-acetamide]	4.23 µM
